What follows are compounds tested against T1, Recombinant Human Poly(ADP-Ribose) Polymerase (PARP) (Homo sapiens, UniProt P09874) (assay: PARP1 inhibition assay ([3H]-NAD+, biotinylated histone H1, FlashPlate/SPA)). Conditions: from inhibition curves at various substrate concentrations.
T1 construct: purchased Trevigen, Gaithersburg, Md; host or cells: E. coli
Format: biochemical
Protocol: Nicotinamide[2,5′,8-3H]adenine dinucleotide and strepavidin SPA beads were purchased from Amersham Biosiences (UK) Recombinant Human Poly(ADP-Ribose) Polymerase (PARP) purified from E. coli and 6-Biotin-17-NAD^+, were purchase from Trevigen, Gaithersburg, Md. NAD^+, Histone, aminobenzamide, 3-amino benzamide and Calf Thymus DNA (dcDNA) were purchased from Sigma, St. Louis, Mo. […] Biotinylated histone H1 was prepared by treating the protein with Sulfo-NHS-LC-Biotin from Pierce Rockford, Ill. […] Streptavidin coated (FlashPlate Plus) microplates were purchased from Perkin Elmer, Boston, Mass.
PARP1 assay was conducted in PARP assay buffer containing 50 mM Tris pH 8.0, 1 mM DTT, 4 mM MgCl2. […] 170 μl of the stopped reaction mixtures were transferred to streptavidin Flash Plates, incubated for 1 hr, and counted using a TopCount microplate scintillation counter.

T1 sequence (P09874 whole entry): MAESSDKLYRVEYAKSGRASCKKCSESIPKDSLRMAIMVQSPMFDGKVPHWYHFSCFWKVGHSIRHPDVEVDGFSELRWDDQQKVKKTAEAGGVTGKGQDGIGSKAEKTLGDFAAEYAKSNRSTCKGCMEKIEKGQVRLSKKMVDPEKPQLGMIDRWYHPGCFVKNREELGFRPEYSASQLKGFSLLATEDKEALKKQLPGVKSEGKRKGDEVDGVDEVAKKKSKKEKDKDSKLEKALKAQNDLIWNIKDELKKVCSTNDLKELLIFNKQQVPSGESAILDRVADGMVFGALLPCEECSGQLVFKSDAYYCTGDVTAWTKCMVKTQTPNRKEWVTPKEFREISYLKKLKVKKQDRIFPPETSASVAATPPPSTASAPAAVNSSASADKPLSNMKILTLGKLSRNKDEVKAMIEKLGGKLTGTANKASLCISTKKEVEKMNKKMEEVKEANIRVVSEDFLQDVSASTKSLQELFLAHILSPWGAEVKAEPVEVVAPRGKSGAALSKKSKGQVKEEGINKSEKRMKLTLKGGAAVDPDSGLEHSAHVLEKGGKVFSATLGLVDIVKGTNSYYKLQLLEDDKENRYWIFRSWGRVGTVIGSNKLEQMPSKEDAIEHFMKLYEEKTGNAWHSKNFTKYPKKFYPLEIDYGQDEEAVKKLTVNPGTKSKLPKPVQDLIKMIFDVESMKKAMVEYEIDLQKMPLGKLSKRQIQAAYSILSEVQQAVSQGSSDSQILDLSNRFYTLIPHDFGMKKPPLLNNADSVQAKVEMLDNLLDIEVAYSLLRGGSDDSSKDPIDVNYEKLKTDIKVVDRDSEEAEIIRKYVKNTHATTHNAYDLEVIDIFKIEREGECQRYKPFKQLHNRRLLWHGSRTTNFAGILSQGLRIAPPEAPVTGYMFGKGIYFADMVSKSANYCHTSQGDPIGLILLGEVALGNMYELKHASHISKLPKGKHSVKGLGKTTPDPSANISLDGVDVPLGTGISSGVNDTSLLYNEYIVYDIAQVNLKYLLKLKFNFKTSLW

| SMILES | Ki [nM] |
| --- | --- |
| CC(CCc1ccccc1)N1CCC(C)(c2nc3c(C(N)=O)cccc3[nH]2)C1 (stereo not drawn) [2-[3-methyl-1-(1-methyl-3-phenylpropyl)pyrrolidin-3-yl]-1H-benzimidazole-4-carboxamide] | 12 |
| CN(C)S(=O)(=O)N1CCC(C)(c2nc3c(C(N)=O)cccc3[nH]2)CC1 [2-{1-[(dimethylamino)sulfonyl]-4-methylpiperidin-4-yl}-1H-benzimidazole-4-carboxamide] | 8.8 |
| NC(=O)c1cccc2[nH]c(C3CCN(Cc4ccncc4)C3)nc12 (stereo not drawn) [2-[1-(pyridin-4-ylmethyl)pyrrolidin-3-yl]-1H-benzimidazole-4-carboxamide] | 14.2 |
| NC(=O)c1cccc2[nH]c(C3CCN(C4CCCCC4)C3)nc12 (stereo not drawn) [2-(1-cyclohexylpyrrolidin-3-yl)-1H-benzimidazole-4-carboxamide] | 7 |
| CC1(c2nc3c(C(N)=O)cccc3[nH]2)CCN(C2CCC2)CC1 [2-(1-cyclobutyl-4-methylpiperidin-4-yl)-1H-benzimidazole-4-carboxamide] | 9.2 |
| CC(C)N1CCC1c1nc2c(C(N)=O)cccc2[nH]1 (stereo not drawn) [2-(1-isopropylazetidin-2-yl)-1H-benzimidazole-4-carboxamide] | 118 |
| CC(C)CN1CCC(c2nc3c(C(N)=O)cccc3[nH]2)C1 (stereo not drawn) [2-(1-isobutylpyrrolidin-3-yl)-1H-benzimidazole-4-carboxamide] | 7.4 |
| CCCN1CCCC1(C)c1nc2c(C(N)=O)cccc2[nH]1 (stereo not drawn) [2-(2-methyl-1-propylpyrrolidin-2-yl)-1H-benzimidazole-4-carboxamide] | 18.7 |
| NC(=O)c1cccc2[nH]c(C3CN(C4CCCCC4)C3)nc12 [2-(1-cyclohexylazetidin-3-yl)-1H-benzimidazole-4-carboxamide] | 16 |
| CCCN1CCC[C@H]1c1nc2c(C(N)=O)cccc2[nH]1 [2-[(2S)-1-propylpyrrolidin-2-yl]-1H-benzimidazole-4-carboxamide] | 129 |
| NC(=O)c1cccc2[nH]c(C3CCN(C4CCOCC4)C3)nc12 (stereo not drawn) [2-(1-tetrahydro-2H-pyran-4-ylpyrrolidin-3-yl)-1H-benzimidazole-4-carboxamide] | 8.2 |
| CCCN1CC(c2nc3c(C(N)=O)cccc3[nH]2)C1 [2-(1-propylazetidin-3-yl)-1H-benzimidazole-4-carboxamide] | 14.1 |
| CC(C)N1CCC[C@@H]1c1nc2cccc(C(N)=O)c2[nH]1 [2-[(2R)-1-isopropylpyrrolidin-2-yl]-1H-benzimidazole-4-carboxamide] | 12.8 |

The remaining compounds from weak to strong by Ki, led by results:

| Ki [nM] | SMILES |
| --- | --- |
| 6.9 | CCCN1CC(C)(c2nc3c(C(N)=O)cccc3[nH]2)C1 [2-(3-methyl-1-propylazetidin-3-yl)-1H-benzimidazole-4-carboxamide] |
| 6.8 | NC(=O)c1cccc2[nH]c(C3CCN(C4CCC4)C3)nc12 (stereo not drawn) [2-(1-cyclobutylpyrrolidin-3-yl)-1H-benzimidazole-4-carboxamide] |
| 6 | CCN1CCCC1(C)c1nc2c(C(N)=O)cccc2[nH]1 (stereo not drawn) [2-(1-ethyl-2-methylpyrrolidin-2-yl)-1H-benzimidazole-4-carboxamide] |
| 5.6 | CC1(c2nc3c(C(N)=O)cccc3[nH]2)CN(C2CCCCC2)C1 [2-(1-cyclohexyl-3-methylazetidin-3-yl)-1H-benzimidazole-4-carboxamide] |
| 5 | CC1(c2nc3c(C(N)=O)cccc3[nH]2)CCN(CC2CC2)C1 (stereo not drawn) [2-[1-(cyclopropylmethyl)-3-methylpyrrolidin-3-yl]-1H-benzimidazole-4-carboxamide] |
| 4.8 | NC(=O)c1cccc2[nH]c(C3CCCN(C4CCCCC4)CC3)nc12 (stereo not drawn) [2-(1-cyclohexylazepan-4-yl)-1H-benzimidazole-4-carboxamide] |
| 4 | CC1(c2nc3c(C(N)=O)cccc3[nH]2)CCN(C2CCC2)C1 (stereo not drawn) [2-(1-cyclobutyl-3-methylpyrrolidin-3-yl)-1H-benzimidazole-4-carboxamide] |
| 3.4 | CC1(c2nc3c(C(N)=O)cccc3[nH]2)CCN(C2CCCC2)C1 (stereo not drawn) [2-(1-cyclopentyl-3-methylpyrrolidin-3-yl)-1H-benzimidazole-4-carboxamide] |
